Test results published in ChEMBL document CHEMBL3112479, “Synthesis and evaluation of the antimicrobial activities of 3-((5-phenyl-1,3,4-oxadiazol-2-yl)methyl)-2-thioxothiazolidin-4-one derivatives” (2014).
Converted amounts (≈) assume the structure as drawn.

What was measured:
Staphylococcus aureus [1] = experiment: Antimicrobial activity against quinolone-resistant Staphylococcus aureus clinical isolate 3519 after 20 hrs by two-fold serial dilution technique; assay type: functional; details: isolate 3519, 20 h
Staphylococcus aureus [2] = experiment: Antimicrobial activity against quinolone-resistant Staphylococcus aureus clinical isolate 3505 after 20 hrs by two-fold serial dilution technique; assay type: functional; details: isolate 3505, 20 h
Staphylococcus aureus [3] = experiment: Antimicrobial activity against methicillin-resistant Staphylococcus aureus clinical isolate 3506 after 20 hrs by two-fold serial dilution technique; assay type: functional; details: isolate 3506, 20 h
Staphylococcus aureus [4] = experiment: Antimicrobial activity against methicillin-resistant Staphylococcus aureus clinical isolate 3167 after 20 hrs by two-fold serial dilution technique; assay type: functional; details: isolate 3167, 20 h
Candida albicans = experiment: Antimicrobial activity against Candida albicans 7535 after 20 hrs by two-fold serial dilution technique; assay type: functional; details: Candida albicans, 7535, 20 h
Salmonella typhimurium [5] = experiment: Antimicrobial activity against Salmonella typhimurium 1926 after 20 hrs by two-fold serial dilution technique; assay type: functional, Salmonella enterica subsp. enterica serovar Typhimurium; details: Salmonella enterica, 1926, 20 h
Salmonella typhimurium [6] = experiment: Antimicrobial activity against Salmonella typhimurium 2421 after 20 hrs by two-fold serial dilution technique; assay type: functional, Salmonella enterica subsp. enterica serovar Typhimurium; details: Salmonella enterica, 2421, 20 h
Pseudomonas aeruginosa [7] = experiment: Antimicrobial activity against Pseudomonas aeruginosa 2004 after 20 hrs by two-fold serial dilution technique; assay type: functional; details: Pseudomonas aeruginosa, 2004, 20 h
Pseudomonas aeruginosa [8] = experiment: Antimicrobial activity against Pseudomonas aeruginosa 2742 after 20 hrs by two-fold serial dilution technique; assay type: functional; details: Pseudomonas aeruginosa, 2742, 20 h
Escherichia coli [9] = experiment: Antimicrobial activity against Escherichia coli CCARM 1356 after 20 hrs by two-fold serial dilution technique; assay type: functional; details: CCARM 1356, 20 h
Escherichia coli [10] = experiment: Antimicrobial activity against Escherichia coli KCTC 1924 after 20 hrs by two-fold serial dilution technique; assay type: functional; details: KCTC 1924, 20 h
Streptococcus mutans = experiment: Antimicrobial activity against Streptococcus mutans 3065 after 20 hrs by two-fold serial dilution technique; assay type: functional; details: Streptococcus mutans, 3065, 20 h
Staphylococcus aureus [11] = experiment: Antimicrobial activity against Staphylococcus aureus 503 after 20 hrs by two-fold serial dilution technique; assay type: functional; details: Staphylococcus aureus, 503, 20 h
Staphylococcus aureus [12] = experiment: Antimicrobial activity against Staphylococcus aureus 209 after 20 hrs by two-fold serial dilution technique; assay type: functional; details: Staphylococcus aureus, 209, 20 h
Staphylococcus aureus [13] = experiment: Antimicrobial activity against Staphylococcus aureus RN4220 after 20 hrs by two-fold serial dilution technique; assay type: functional; details: RN4220, 20 h

Compound | MIC (Staphylococcus aureus [1]) [µg/mL] | MIC (Staphylococcus aureus [2]) [µg/mL] | MIC (Staphylococcus aureus [3]) [µg/mL] | MIC (Staphylococcus aureus [4]) [µg/mL] | MIC (Candida albicans) [µg/mL] | MIC (Salmonella typhimurium [5]) [µg/mL] | MIC (Salmonella typhimurium [6]) [µg/mL] | MIC (Pseudomonas aeruginosa [7]) [µg/mL] | MIC (Pseudomonas aeruginosa [8]) [µg/mL] | MIC (Escherichia coli [9]) [µg/mL] | MIC (Escherichia coli [10]) [µg/mL] | MIC (Streptococcus mutans) [µg/mL] | MIC (Staphylococcus aureus [11]) [µg/mL] | MIC (Staphylococcus aureus [12]) [µg/mL] | MIC (Staphylococcus aureus [13]) [µg/mL]
Cc1cccc(-c2nnc(CN3C(=O)CSC3=S)o2)c1 | 32 (≈ 105 µM) | 32 (≈ 105 µM) | 32 (≈ 105 µM) | 32 (≈ 105 µM) | 64 (≈ 210 µM) | 64 (≈ 210 µM) | 128 (≈ 419 µM) | > 128 | > 128 | > 128 | 16 (≈ 52.4 µM) | 8 (≈ 26.2 µM) | 32 (≈ 105 µM) | 16 (≈ 52.4 µM) | 32 (≈ 105 µM)
O=C1CSC(=S)N1Cc1nnc(-c2cccc(Cl)c2)o1 | 32 (≈ 98.2 µM) | 32 (≈ 98.2 µM) | 32 (≈ 98.2 µM) | 32 (≈ 98.2 µM) | 32 (≈ 98.2 µM) | 32 (≈ 98.2 µM) | 64 (≈ 196 µM) | > 128 | > 128 | > 128 | 16 (≈ 49.1 µM) | 16 (≈ 49.1 µM) | 32 (≈ 98.2 µM) | 16 (≈ 49.1 µM) | 16 (≈ 49.1 µM)
O=C1CSC(=S)N1Cc1nnc(-c2cccc(Br)c2)o1 | 32 (≈ 86.4 µM) | 32 (≈ 86.4 µM) | 32 (≈ 86.4 µM) | 16 (≈ 43.2 µM) | 32 (≈ 86.4 µM) | 32 (≈ 86.4 µM) | 128 (≈ 346 µM) | > 128 | > 128 | > 128 | 16 (≈ 43.2 µM) | 16 (≈ 43.2 µM) | 32 (≈ 86.4 µM) | 16 (≈ 43.2 µM) | 32 (≈ 86.4 µM)
Cc1ccc(-c2nnc(CN3C(=O)CSC3=S)o2)cc1 | 64 (≈ 210 µM) | 64 (≈ 210 µM) | 64 (≈ 210 µM) | 64 (≈ 210 µM) | 64 (≈ 210 µM) | 64 (≈ 210 µM) | 128 (≈ 419 µM) | > 128 | > 128 | > 128 | 64 (≈ 210 µM) | 64 (≈ 210 µM) | 64 (≈ 210 µM) | 64 (≈ 210 µM) | 64 (≈ 210 µM)
O=C1CSC(=S)N1Cc1nnc(-c2ccc(Cl)cc2)o1 | 64 (≈ 196 µM) | 64 (≈ 196 µM) | 32 (≈ 98.2 µM) | 32 (≈ 98.2 µM) | 32 (≈ 98.2 µM) | 32 (≈ 98.2 µM) | 128 (≈ 393 µM) | > 128 | > 128 | > 128 | 16 (≈ 49.1 µM) | 16 (≈ 49.1 µM) | 64 (≈ 196 µM) | 32 (≈ 98.2 µM) | 32 (≈ 98.2 µM)
O=C1CSC(=S)N1Cc1nnc(-c2ccc(Br)cc2)o1 | 64 (≈ 173 µM) | 64 (≈ 173 µM) | 64 (≈ 173 µM) | 64 (≈ 173 µM) | 64 (≈ 173 µM) | 64 (≈ 173 µM) | 128 (≈ 346 µM) | > 128 | > 128 | > 128 | 64 (≈ 173 µM) | 16 (≈ 43.2 µM) | 64 (≈ 173 µM) | 64 (≈ 173 µM) | 64 (≈ 173 µM)
Cc1ccccc1-c1nnc(CN2C(=O)CSC2=S)o1 | 64 (≈ 210 µM) | 32 (≈ 105 µM) | 64 (≈ 210 µM) | 32 (≈ 105 µM) | 64 (≈ 210 µM) | 32 (≈ 105 µM) | 128 (≈ 419 µM) | > 128 | > 128 | > 128 | 16 (≈ 52.4 µM) | 16 (≈ 52.4 µM) | 64 (≈ 210 µM) | 16 (≈ 52.4 µM) | 32 (≈ 105 µM)
O=C1CSC(=S)N1Cc1nnc(-c2ccccc2Cl)o1 | 32 (≈ 98.2 µM) | 32 (≈ 98.2 µM) | 32 (≈ 98.2 µM) | 32 (≈ 98.2 µM) | 64 (≈ 196 µM) | 32 (≈ 98.2 µM) | 64 (≈ 196 µM) | > 128 | > 128 | > 128 | 16 (≈ 49.1 µM) | 16 (≈ 49.1 µM) | 32 (≈ 98.2 µM) | 16 (≈ 49.1 µM) | 32 (≈ 98.2 µM)
O=C1CSC(=S)N1Cc1nnc(-c2ccccc2Br)o1 | 32 (≈ 86.4 µM) | 32 (≈ 86.4 µM) | 32 (≈ 86.4 µM) | 16 (≈ 43.2 µM) | 64 (≈ 173 µM) | 64 (≈ 173 µM) | 128 (≈ 346 µM) | > 128 | > 128 | > 128 | 16 (≈ 43.2 µM) | 16 (≈ 43.2 µM) | 64 (≈ 173 µM) | 16 (≈ 43.2 µM) | 32 (≈ 86.4 µM)
COc1c(N2CCNC(C)C2)c(F)cc2c(=O)c(C(=O)O)cn(C3CC3)c12 (stereo not given) [GATIFLOXACIN] | 4 (≈ 10.7 µM) | 8 (≈ 21.3 µM) | 2 (≈ 5.33 µM) | 2 (≈ 5.33 µM) | 0.5 (≈ 1.33 µM) | 2 (≈ 5.33 µM) | 0.5 (≈ 1.33 µM) | 1 (≈ 2.66 µM) | 1 (≈ 2.66 µM) | 16 (≈ 42.6 µM) | 2 (≈ 5.33 µM) | 0.5 (≈ 1.33 µM) | 4 (≈ 10.7 µM) | 2 (≈ 5.33 µM) | 0.25 (≈ 0.666 µM)
